PubChem BioAssay (NCI)
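Dose response: 5 concentrations. Exposure: 48 h. Format: 96-well plates. Endpoint: linear interpolation; highest concentration if not reached. TGI: total growth inhibition.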

How the values were obtained:
Test in all cases: NCI-60 cell line screen, 48 h
SF-268 CNS = tested on: SF-268 CNS
HT29 colon = tested on: HT29 colon
MDA-MB-435 = tested on: MDA-MB-435
OVCAR-3 ovarian = tested on: OVCAR-3 ovarian
RPMI-8226 leukemia = tested on: RPMI-8226 leukemia
HL-60(TB) leukemia = tested on: HL-60(TB) leukemia
HOP-92 NSCLC = tested on: HOP-92 NSCLC
IGROV1 ovarian = tested on: IGROV1 ovarian
OVCAR-4 ovarian = tested on: OVCAR-4 ovarian
OVCAR-8 ovarian = tested on: OVCAR-8 ovarian
MOLT-4 leukemia = tested on: MOLT-4 leukemia
CCRF-CEM leukemia = tested on: CCRF-CEM leukemia
786-0 renal = tested on: 786-0 renal
DU-145 prostate = tested on: DU-145 prostate
SF-295 CNS = tested on: SF-295 CNS
HCT-116 colon = tested on: HCT-116 colon
UO-31 renal = tested on: UO-31 renal
NCI/ADR-RES ovarian = tested on: NCI/ADR-RES ovarian
MDA-MB-231 breast = tested on: MDA-MB-231 breast
NCI-H23 lung = tested on: NCI-H23 lung

SMILES: COc1cccc(-c2nc(-c3cnccn3)n(COCCO)n2)c1
- TGI (SF-268 CNS): > 100 µM
- TGI (HT29 colon): > 100 µM
- TGI (MDA-MB-435): > 100 µM
- TGI (OVCAR-3 ovarian): > 100 µM
- TGI (RPMI-8226 leukemia): > 100 µM
- TGI (HL-60(TB) leukemia): > 100 µM
- TGI (HOP-92 NSCLC): > 100 µM
- TGI (IGROV1 ovarian): > 100 µM
- TGI (OVCAR-4 ovarian): > 100 µM
- TGI (OVCAR-8 ovarian): > 100 µM
- TGI (MOLT-4 leukemia): > 100 µM
- TGI (CCRF-CEM leukemia): > 100 µM
- TGI (786-0 renal): > 100 µM
- TGI (DU-145 prostate): > 100 µM
- TGI (SF-295 CNS): > 100 µM
- TGI (HCT-116 colon): > 100 µM
- TGI (UO-31 renal): > 100 µM
- TGI (NCI/ADR-RES ovarian): > 100 µM
- TGI (MDA-MB-231 breast): > 100 µM
- TGI (NCI-H23 lung): > 100 µM

SMILES: O=C1Oc2cc3c(c4cccc1c24)O[C@H](c1ccccc1)[C@@H](c1ccccc1)[C@@H]3c1ccc(Cl)cc1
- TGI (SF-268 CNS): > 100 µM
- TGI (HT29 colon): > 100 µM
- TGI (MDA-MB-435): > 100 µM
- TGI (OVCAR-3 ovarian): > 100 µM
- TGI (RPMI-8226 leukemia): > 100 µM
- TGI (HL-60(TB) leukemia): > 100 µM
- TGI (HOP-92 NSCLC): 67.9 µM
- TGI (IGROV1 ovarian): 77.4 µM
- TGI (OVCAR-4 ovarian): > 100 µM
- TGI (OVCAR-8 ovarian): 95.8 µM
- TGI (MOLT-4 leukemia): 64.3 µM
- TGI (CCRF-CEM leukemia): > 100 µM
- TGI (786-0 renal): > 100 µM
- TGI (DU-145 prostate): > 100 µM
- TGI (SF-295 CNS): > 100 µM
- TGI (HCT-116 colon): > 100 µM
- TGI (NCI/ADR-RES ovarian): > 100 µM
- TGI (MDA-MB-231 breast): 52.3 µM
- TGI (NCI-H23 lung): > 100 µM

SMILES: O=C1NC2(CCN(CCCC3(c4ccc(F)cc4)OCCO3)CC2)Oc2ccccc21
- TGI (SF-268 CNS): > 100 µM
- TGI (HT29 colon): > 100 µM
- TGI (MDA-MB-435): > 100 µM
- TGI (RPMI-8226 leukemia): > 100 µM
- TGI (HL-60(TB) leukemia): > 100 µM
- TGI (HOP-92 NSCLC): > 100 µM
- TGI (IGROV1 ovarian): > 100 µM
- TGI (OVCAR-4 ovarian): > 100 µM
- TGI (OVCAR-8 ovarian): > 100 µM
- TGI (MOLT-4 leukemia): > 100 µM
- TGI (CCRF-CEM leukemia): > 100 µM
- TGI (786-0 renal): > 100 µM
- TGI (DU-145 prostate): > 100 µM
- TGI (SF-295 CNS): > 100 µM
- TGI (HCT-116 colon): > 100 µM
- TGI (UO-31 renal): > 100 µM
- TGI (NCI/ADR-RES ovarian): > 100 µM
- TGI (MDA-MB-231 breast): > 100 µM
- TGI (NCI-H23 lung): > 100 µM

SMILES: CC(=O)O[C@@H](C1C[C@@H](C)[C@H]2[C@@](O)(O1)[C@H](O)[C@@]1(C)C3=CC[C@H]4C(C)(C)[C@@H](OC5OCC(O)C(O)C5O)CC[C@@]45C[C@@]35CC[C@]21C)C(C)(C)O (stereo partly drawn)
- TGI (SF-268 CNS): > 100 µM
- TGI (HT29 colon): > 100 µM
- TGI (MDA-MB-435): 53.3 µM
- TGI (OVCAR-3 ovarian): 41.9 µM
- TGI (RPMI-8226 leukemia): 59.5 µM
- TGI (HL-60(TB) leukemia): 15.3 µM
- TGI (HOP-92 NSCLC): 60.5 µM
- TGI (IGROV1 ovarian): > 100 µM
- TGI (OVCAR-4 ovarian): > 100 µM
- TGI (OVCAR-8 ovarian): > 100 µM
- TGI (MOLT-4 leukemia): 44.8 µM
- TGI (CCRF-CEM leukemia): 24.4 µM
- TGI (786-0 renal): 63.6 µM
- TGI (DU-145 prostate): 70 µM
- TGI (SF-295 CNS): 48.1 µM
- TGI (HCT-116 colon): 41.5 µM
- TGI (UO-31 renal): 62.2 µM
- TGI (NCI/ADR-RES ovarian): > 100 µM
- TGI (MDA-MB-231 breast): 37.2 µM
- TGI (NCI-H23 lung): 49 µM

SMILES: COc1ccc(C(=O)Nc2ccc3oc(-c4ccccc4)nc3c2)cc1
- TGI (SF-268 CNS): > 100 µM
- TGI (HT29 colon): > 100 µM
- TGI (MDA-MB-435): > 100 µM
- TGI (OVCAR-3 ovarian): > 100 µM
- TGI (RPMI-8226 leukemia): > 100 µM
- TGI (HL-60(TB) leukemia): > 100 µM
- TGI (HOP-92 NSCLC): > 100 µM
- TGI (IGROV1 ovarian): > 100 µM
- TGI (OVCAR-4 ovarian): > 100 µM
- TGI (OVCAR-8 ovarian): 88.5 µM
- TGI (MOLT-4 leukemia): > 100 µM
- TGI (CCRF-CEM leukemia): > 100 µM
- TGI (786-0 renal): > 100 µM
- TGI (DU-145 prostate): > 100 µM
- TGI (SF-295 CNS): > 100 µM
- TGI (HCT-116 colon): > 100 µM
- TGI (UO-31 renal): 0.838 µM
- TGI (NCI/ADR-RES ovarian): > 100 µM
- TGI (MDA-MB-231 breast): > 100 µM
- TGI (NCI-H23 lung): > 100 µM

SMILES: CCCC[C@H]1CCN2C[C@@H](O)[C@@H](O)[C@H]2[C@@H]1O
- TGI (SF-268 CNS): > 100 µM
- TGI (HT29 colon): > 100 µM
- TGI (MDA-MB-435): > 100 µM
- TGI (OVCAR-3 ovarian): > 100 µM
- TGI (RPMI-8226 leukemia): > 100 µM
- TGI (HL-60(TB) leukemia): > 100 µM
- TGI (HOP-92 NSCLC): > 100 µM
- TGI (IGROV1 ovarian): > 100 µM
- TGI (OVCAR-4 ovarian): > 100 µM
- TGI (OVCAR-8 ovarian): > 100 µM
- TGI (MOLT-4 leukemia): > 100 µM
- TGI (CCRF-CEM leukemia): > 100 µM
- TGI (786-0 renal): > 100 µM
- TGI (DU-145 prostate): > 100 µM
- TGI (SF-295 CNS): > 100 µM
- TGI (HCT-116 colon): > 100 µM
- TGI (UO-31 renal): > 100 µM
- TGI (NCI/ADR-RES ovarian): > 100 µM
- TGI (MDA-MB-231 breast): > 100 µM
- TGI (NCI-H23 lung): > 100 µM
